Measured values: article PMC7316490, “Dihydrofolate Reductase Is a Valid Target for Antifungal Development in the Human Pathogen Candida albicans” (mSphere, 2020)
In brackets after ≈: the same amount, converted by molar mass.

Tests used:
[1] = system: wild-type C. albicans strain (SC5314); experiment: Antifungal susceptibility testing (dose-response growth, OD600); assay type: cell-based, Candida albicans; details: for MIC50: Candida albicans
Experimental: A wild-type C. albicans strain (SC5314) was seeded at 1 × 10^4 cells/ml into YNB medium without folate or PABA with the indicated supplements and increasing concentrations of MTX. After 48 h of incubation at 30°C, growth was quantified as the OD600 value and expressed as a percentage of the value for the DMSO-treated control. The values presented here are the average of two replicates and are representative of two independent experiments.
Approximately 1 × 10^4 cells/ml of a wild-type C. albicans strain was seeded into a 96-well plate with increasing concentrations of MTX in YNB pH 5, YNB pH 7, and RPMI pH 7 media. After 48 h, the OD600 was measured and expressed as a percentage of the value for the DMSO-treated control. The results presented here are the averages of two replicates and are representative of two independent experiments.
Stock solutions of MTX were prepared at 10 mM in dimethyl sulfoxide (DMSO) and diluted as needed in the same solvent. […] The final concentration of DMSO was 0.5% for all treatments. Plates were then incubated at 30°C before growth was quantified after 24 and 48 h by measuring the OD600 using a Cytation 5 plate reader (Bio-Tek Instruments, Inc.). MIC50 values were identified visually using the CLSI antifungal susceptibility assay and then confirmed by quantifying growth by the OD600 value. The growth of each strain at each drug concentration was then expressed relative to that of the DMSO-alone control. The susceptibility to MTX at the highest concentration at each pH was compared to that of the other pH values using a two-tailed Student's t test.

[2] = system: C. albicans cdr1Δ/Δ, tac1Δ/Δ and mdr1Δ/Δ mutants; experiment: Antifungal susceptibility testing of efflux pump mutants; assay type: cell-based, Candida albicans; details: for MIC50: Candida albicans
Experimental: C. albicans cdr1Δ/Δ (A), tac1Δ/Δ (B), or mdr1Δ/Δ (C) strains, or that overexpress CDR1 (A), TAC1 (B), or MDR1 (C) from the PTEF1 promoter, were subcultured to approximately 1 × 10^4 cells/ml into YNB medium at pH 5 or pH 7 supplemented with a range of MTX concentrations. After 48 h at 30°C, growth was quantified as the OD600 value and expressed as a percentage of the value for the untreated wells. The values presented here are the average of two replicates and are representative of two independent experiments. WT, wild type.
(§1) Stock solutions of MTX were prepared at 10 mM in dimethyl sulfoxide (DMSO) and diluted as needed in the same solvent. Each C. albicans strain was grown overnight in YPD medium at 30°C and diluted to approximately 1 × 10^4 cells/ml in YNB medium or RPMI 1640 medium, and 100 μl of each cell suspension was transferred to the wells of a round-bottom 96-well plate. An additional 100 μl of YNB or RPMI 1640 medium containing 2× the final desired concentration of MTX was then added to each well. The final concentration of DMSO was 0.5% for all treatments. Plates were then incubated at 30°C before growth was quantified after 24 and 48 h by measuring the OD600 using a Cytation 5 plate reader (Bio-Tek Instruments, Inc.). MIC50 values were identified visually using the CLSI antifungal susceptibility assay and then confirmed by quantifying growth by the OD600 value. The growth of each strain at each drug concentration was then expressed relative to that of the DMSO-alone control. The susceptibility to MTX at the highest concentration at each pH was compared to that of the other pH values using a two-tailed Student's t test.

[3] = system: Candida glabrata; experiment: Antifungal susceptibility testing, other species; assay type: cell-based; details: YNB medium at pH 5 and pH 7
Experimental: (§2) Strains of C. albicans (A), C. glabrata (B), C. tropicalis (C), and C. parapsilosis (D) were seeded into YNB medium buffered at pH 5 or pH 7 at approximately 1 × 10^4 cells/ml in the presence of a range of MTX concentrations. After 48 h at 30°C, growth was quantified as the OD600 and expressed as a percentage of the value for the untreated controls. The values presented here are the average of two replicates and are representative of two experiments. The susceptibility to MTX at the highest concentration at each pH was compared to that of the other pH values using a two-tailed Student's t test (*, P < 0.01; **, P < 0.0001).
as §1

[4] = system: Candida tropicalis; experiment: Antifungal susceptibility testing, other species; assay type: cell-based; details: YNB medium at pH 5 and pH 7
Experimental: as §2, §1

[5] = system: Candida parapsilosis; experiment: Antifungal susceptibility testing, other species; assay type: cell-based; details: YNB medium at pH 5 and pH 7
Experimental: as §2, §1

CN(Cc1cnc2nc(N)nc(N)c2n1)c1ccc(C(=O)N[C@@H](CCC(=O)O)C(=O)O)cc1 [Methotrexate, methotrexate]
MIC50 ([1]; SC5314, YNB medium with additional supplements of folic acid (up to 25 μM)): 0.078 µM (≈ 0.0354 µg/mL)
MIC50 ([1]; SC5314, YNB with addition of 250 μM folinic acid): ~5 µM (≈ 2.27 µg/mL)
MIC50 ([1]; SC5314, pH 5, YNB pH 5 medium): ~0.78 µM (≈ 0.354 µg/mL)
MIC50 ([1]; SC5314, pH 7, RPMI 1640 pH 7 medium): > 50 µM
MIC50 ([1]; SC5314, pH 7, YNB pH 7 medium): > 50 µM
MIC50 ([1]; SC5314, unbuffered standard YNB medium): ~0.78 µM (≈ 0.354 µg/mL)
effect of 1 μM DHF, THF or 5MTHF supplement on MTX-mediated growth inhibition ([1]; YNB medium): had no effect
drop of MIC50 with folic acid supplements ([1]; versus standard YNB medium): ~10 fold
MIC50 ([2]; pH 5): 0.39 µM (≈ 0.177 µg/mL)
MIC50 ([2]; pH 7): > 6.25 µM
susceptibility of mdr1Δ/Δ mutant versus MDR1+ control strains ([2]; YNB medium at pH 5 or 7): not significantly different
growth inhibition (in words) [3]: insensitive at either pH
growth inhibition (in words) [4]: modest and pH-dependent growth inhibition
growth inhibition (in words) [5]: modest and pH-dependent growth inhibition
